The conditions of data set [1]: 7.3 mg in 100 μl of a saturated solution of mannitol, monitored over 5 minutes.
The conditions of data set [2]: cited from earlier work.
The nature of data set [3]: in vivo. The note with it: for AUC(0-inf) / AUC(0-t) / Cmax / Tmax / half-life: both, NZW, rabbit, plasma. Here is the method:
Sublingual tablets or IM doses were administered using a Randomized Crossover study design over 5-consecutive weeks.
(§1) Animals were evaluated for viability once-daily throughout the study. Cageside clinical observations were performed twice-daily from the initiation of dosing until the end of treatment. Body weights were obtained upon receipt, on Study Day 1 and weekly thereafter.
Blood samples (approximately 1 mL/time point) were obtained from an indwelling arterial catheter placed approximately 30-minutes prior to initiation of sample collection. Samples were collected immediately prior to dosing (pre-dose baseline) and at approximately 5, 10, 15, 20, 30, 40, 60, 90, 120, and 180 minutes after dosing. At later time points, the samples were obtained by direct needle puncture or by removing the catheter and allowing blood to flow directly from the animal's ear artery into the blood collection tube.
Immediately after collection, the tube was inverted several times to disperse the anticoagulant and then placed on ice until centrifugation. The blood samples were centrifuged (˜2000×g for 10 minutes at 8° C.) within approximately 15-30 minutes of collection to separate the cellular and plasma fractions. The plasma fraction was harvested into screw-capped tubes and stored at approximately −70° C. (±10° C.) until analyzed. […] The remaining red blood cell fraction was discarded.
The method was validated based on the commercial method developed by ESA Biosciences, Inc. (Chelmsford, Mass.). All standards and reagents for the extraction and chromatography were purchased from ESA. Plasma samples, calibrators and quality control (QC) samples were extracted as follows: Each 0.50 mL aliquot of calibration curve standard, QC or unknown sample was mixed with 0.50 mL of working internal standard (I.S.) stock solution (dihydroxybenzylamine [DHBA], 10 ng/mL) in an ESA extraction tube containing alumina and buffer. The extraction tubes were capped and placed on a rocking shaker for 10 minutes. The tubes were placed on a vacuum manifold and the liquid was aspirated to waste. Each tube was then filled with wash solution which was aspirated to waste. Eluting solution (200 μL) was added to each tube. The tubes were capped and vortex-mixed for 10 minutes. The eluting solution was then forced from the tube under pressure into a microcentrifuge tube. The samples were centrifuged for 15 minutes, transferred to an autosampler vial and a 50 μl aliquot was injected into the HPLC.
A freshly prepared standard curve was analyzed along with samples on each day of analysis. […] Calibrator concentrations were 0.5, 1, 2, 4, 8, 12, 16 and 20 ng/mL as determined in the validation study. […] For the determination of unknown sample concentrations, two standard curve ranges were used; 0.5 to 20 ng/mL and 12 to […]. Values of unknown samples less than or equal to 20 ng/mL were reported from the lower range, and values greater than 20 ng/mL were reported from the higher range.
Elimination half-life (T½), maximum concentration (Cmax), time of maximum concentration (Tmax), area under the plasma concentration-time curve from time 0 through the final timepoint (AUC0-t), and area under the plasma concentration-time curve from time 0 extrapolated to infinity (AUC0-∞) were calculated for this study. The noncompartmental model for extravascular administration was used for all pharmacokinetic analyses. The calculation method was linear trapezoidal with linear/log interpolation. The elimination rate constant, lambda z (λz), was determined by WinNonlin using the best fit method.

The conditions of data set [4]: rabbits; for Serum glucose level: relative to predose baseline; for Serum potassium levels: relative to predose levels. Here is the method: as §1
The conditions of data set [5]: rabbit, in vivo, im, 0.3 mg.
Procedure: (§2) In a prospective, controlled, 5-way crossover study, five New Zealand white rabbits (mean weight 4.8±0.2 were investigated on five different days at least four weeks apart, using a protocol described previously (Gu et al., 1999). Each rabbit received EP 10 mg, EP 20 mg, and EP 40 mg as sublingual tablets, a placebo sublingual tablet (EP 0 mg) (as set forth in Table VI), and an EP 0.3 mg IM injection in the right thigh from EpiPen.
(§3) Using the same five New Zealand white rabbits (mean weight 4.8±0.2 Kg) as referred to supra, a prospective, controlled, 5-way crossover study was conducted, using a protocol described above (Gu et al., 1999), wherein each rabbit received an EP 40 mg sublingual tablet from each formulation set forth in Table XII and an EP 0.3 mg IM injection in the right thigh from EpiPen.
(§4) An indwelling catheter (OPTIVA 22G 1″, Johnson & Johnson) was inserted into an ear artery 30 min before dosing A 2 ml blood sample was obtained immediately before dosing and at 5, 10, 15, 20, 30, 40, 60, 90, 120, 150 and 180 minutes afterward.
(§5) Blood samples were refrigerated within 1 hour of sampling and centrifuged at 4° C. Plasma was frozen at −20° C. Before analysis, the plasma was thawed at room temperature and EP was extracted by a solid-liquid extraction process, with an efficiency of 70%-80%. […] The low range calibration curve was linear over the range of 0.1 to 1.0 ng/ml with a coefficient of variation of 0.8% at 0.1 ng and 1.4% at 1.0 ng. The high range calibration curve was linear over the range of 1.0 to 10.0 ng/ml with a coefficient of variation of 4.8% at 1.0 ng and 1.1% at 10.0 ng.
(§6) The AUC, Cmax, and Tmax values for each rabbit were compared using repeated measures ANOVA, Tukey-Kramer tests, and paired Students' t-test using NCSS Statistical Analysis Software (NCSS, Kaysville, Utah). Differences were considered to be significant at p<0.05.
Data set [6] is described as follows: in vivo. The note with it: New Zealand white, rabbit, im, 0.3 mg.
Procedure: as §2, §3, §4, §5, §6
The mark [7] stands for this setting: rabbits, 0.3 mg IM, mean ± SD, listed as epinephrine.
Where [8] appears, read: rabbits, 15 mg sublingual tablet, N = 1.
The mark [9] stands for this setting: rabbits, 15 mg sublingual tablet, mean ± SD.
Where [10] appears, read: rabbits, 30 mg sublingual tablet, mean ± SD.
The mark [11] stands for this setting: rabbits, 30 mg sublingual tablet, mean ± SD, listed as epinephrine.
Where [12] appears, read: rabbits, 60 mg sublingual (2x30 mg tablets), mean ± SD.

SMILES strings stand for the structures. Entries after “also recorded” stand apart in the source; their conditions may differ. Where a name gives a salt, the structure may show the parent alone. Read-outs that look alike come from different tables or passages of the source.

In the case of `CNC[C@H](O)c1ccc(O)c(O)c1` [EPBT, (−)-3,4-dihydroxy-α-[(methylamino)methyl]benzyl alcohol (+)-tartrate (1:1) salt], the Dissolution of crystals result in data set [1] is “incomplete after 5 minutes; also recorded: slow and incomplete at the end of 5 minutes”. Besides, in data set [2], the Water solubility is recorded as 1 gm in 3 ml water.

Regarding `CNC[C@H](O)c1ccc(O)c(O)c1` [Epinephrine], the AUC(0-inf) (in general, the area under the concentration-time curve extrapolated to infinity) in “in vivo [3]” (15 mg) is 196 ng·h/mL; in “in vivo [3]” (30 mg), 86.7 ng·h/mL; in the data set “in vivo [3]” (60 mg), 300 ng·h/mL; in the data set “in vivo [3]” (im, 0.3 mg), 78.4 ng·h/mL. Moreover, the area under the curve AUC(0-t) (usually the area under the concentration-time curve up to a stated or last time point) in the data set “in vivo [3]” (15 mg) is 74.9 ng·h/mL; in the data set “in vivo [3]” (30 mg), 82.3 ng·h/mL; in “in vivo [3]” (60 mg) it was 242 ng·h/mL; in the data set “in vivo [3]” (im, 0.3 mg) it was 54.3 ng·h/mL. Also, the peak concentration (Cmax) (commonly the peak of the concentration-time curve) was 119 ± 131 ng/mL in “in vivo [3]” (15 mg); 142 ± 192 ng/mL in the data set “in vivo [3]” (30 mg); 234 ± 182 ng/mL in “in vivo [3]” (60 mg); 54.7 ± 28.3 ng/mL in the data set “in vivo [3]” (im, 0.3 mg); 50.3 ± 17.1 ng/mL in the data set “in vivo [6]”. Also, the Tmax (as a rule, the time at which the peak concentration occurs) is 59.2 min in the data set “in vivo [3]” (15 mg); 36.7 min in the data set “in vivo [3]” (30 mg); 44.2 min in “in vivo [3]” (60 mg); 24 min in the data set “in vivo [3]” (im, 0.3 mg); 21 min in “in vivo [6]”. Moreover, the half-life (commonly how long it takes for the measured level to halve) in the data set “in vivo [3]” (15 mg) is 181 ± 36.3 min; in the data set “in vivo [3]” (30 mg) it was 86.3 ± 60.5 min; in “in vivo [3]” (60 mg) it was 141 ± 135 min; in “in vivo [3]” (im, 0.3 mg) it was 91.3 ± 44.3 min. Also, the Cmax1 is reported as 26.6 ± 9.4 ng/mL in “in vivo [3]” (rabbits, 0.3 mg IM, mean ± SD); 55.4 ± 87.6 ng/mL in the data set “in vivo [3]” (setting [9]); 147.5 ± 215.7 ng/mL in the data set “in vivo [3]” (setting [10]); 154.0 ± 125.4 ng/mL in “in vivo [3]” (setting [12]). Besides, the Cmax2 in “in vivo [3]” (rabbits, 0.3 mg IM, mean ± SD) stood at 42.7 ± 18.1 ng/mL; in “in vivo [3]” (setting [7]), 42.7 ± 18.1 ng/mL; in “in vivo [3]” (setting [9]) it was 30.4 ± 25.7 ng/mL; in “in vivo [3]” (setting [10]), 82.2 ± 102.1 ng/mL; in the data set “in vivo [3]” (setting [11]), 82.2 ± 102.1 ng/mL; in the data set “in vivo [3]” (setting [12]), 85.4 ± 35.3 ng/mL. In addition, the Tmax1 in the data set “in vivo [3]” (rabbits, 0.3 mg IM, mean ± SD) is 9.0 ± 2.2 min; in the data set “in vivo [3]” (setting [7]) it was 9.0 ± 2.2 min; in the data set “in vivo [3]” (setting [9]), 9.2 ± 2.0 min; in the data set “in vivo [3]” (setting [10]) it was 8.3 ± 4.1 min; in the data set “in vivo [3]” (setting [11]), 8.4 ± 4.1 min; in the data set “in vivo [3]” (setting [12]), 14.2 ± 8.6 min. Besides, the Tmax1 in the data set “in vivo [3]” (rabbits, 60 mg sublingual (2x30 mg tablets), mean ± SD, listed as epinephrine) came to 14.2 ± 8.6 min. Also, the Cmax4 in the data set “in vivo [3]” (setting [8]) stood at 55.10 ng/mL. Moreover, the Tmax4 in the data set “in vivo [3]” (setting [8]) is 180.0 min. The Cmax3 in “in vivo [3]” (setting [9]) is recorded as 85.2 ± 127.8 ng/mL; in “in vivo [3]” (setting [10]), 45.5 ± 44.3 ng/mL; in the data set “in vivo [3]” (setting [12]) it was 127.8 ± 83.8 ng/mL. Moreover, in the data set “in vivo [3]” (setting [9]), the Tmax3 was 111.7 ± 59.5 min. Moreover, the Serum glucose level result in data set [4] (0.3 mg IM) and in data set [4] (60 mg sublingual) was “increase in serum glucose level” each time. The Serum potassium levels result in data set [4] (30 mg sublingual) and in data set [4] (60 mg sublingual) was “decreased” throughout. Also, the AUC in data set [5] came out at 2431 ± 386 ng/mL/min.

Consider `OC[C@@H](O)[C@@H](O)[C@H](O)[C@H](O)CO` [Mannitol], for which, in data set [2], the Water solubility was 1 gm in 5.5 ml water.

The values are drawn from patent publication US20070202163A1 (priority 2005, published 2007).
